From the NIST ThermoML archive (doi:10.1021/je900414p)

Assay: xn = mol fraction of the nth substance listed
Settings: Liquid

CCOS(=O)(=O)[O-].CCn1cc[n+](C)c1 [1-ethyl-3-methylimidazolium ethyl sulfate] + CCO
mass density [kg/m3]
Settings	100 kPa	2500 kPa	5000 kPa	10000 kPa	15000 kPa	20000 kPa	25000 kPa	30000 kPa	35000 kPa
313.15 K, x1 = 0.05056	843.63	845.7	847.81	851.86	855.73	859.44	862.99	866.42	869.72
313.15 K, x1 = 0.103	902	903.78	905.71	909.43	912.99	916.4	919.72	922.91	926.01
313.15 K, x1 = 0.1247	923.22	925.01	926.88	930.46	933.91	937.23	940.45	943.56	946.56
313.15 K, x1 = 0.2126	992.44	994.08	995.74	998.97	1002.07	1005.09	1008.03	1010.88	1013.65
313.15 K, x1 = 0.2919	1041.3	1042.32	1043.83	1046.78	1049.64	1052.42	1055.15	1057.79	1060.38
313.15 K, x1 = 0.3185	1054.58	1055.91	1057.39	1060.28	1063.09	1065.82	1068.49	1071.08	1073.63
313.15 K, x1 = 0.4198	1098.28	1099.64	1101.01	1103.69	1106.3	1108.84	1111.34	1113.78	1116.18
313.15 K, x1 = 0.4847	1120.82	1122.08	1123.39	1125.96	1128.48	1130.94	1133.35	1135.7	1138.01
313.15 K, x1 = 0.5713	1146.49	1147.66	1148.92	1151.37	1153.79	1156.13	1158.44	1160.72	1162.93
313.15 K, x1 = 0.6827	1173.47	1174.61	1175.83	1178.16	1180.44	1182.7	1184.92	1187.08	1189.22
313.15 K, x1 = 0.7919	1195.34	1196.17	1197.31	1199.56	1201.76	1203.92	1206.06	1208.15	1210.22
313.15 K, x1 = 0.9317	1217.11	1218.16	1219.26	1221.43	1223.56	1225.65	1227.71	1229.75	1231.75
323.15 K, x1 = 0.05056	835.32	837.47	839.71	843.97	848.02	851.88	855.6	859.16	862.58
323.15 K, x1 = 0.103	893.98	895.85	897.87	901.75	905.47	909.03	912.49	915.79	919.01
323.15 K, x1 = 0.1247	915.32	917.14	919.07	922.82	926.4	929.85	933.19	936.42	939.53
323.15 K, x1 = 0.2126	984.81	986.48	988.21	991.57	994.8	997.91	1000.95	1003.91	1006.77
323.15 K, x1 = 0.2919	1034.05	1035.04	1036.64	1039.7	1042.66	1045.53	1048.35	1051.07	1053.73
323.15 K, x1 = 0.3185	1047.28	1048.63	1050.16	1053.16	1056.05	1058.87	1061.63	1064.29	1066.91
323.15 K, x1 = 0.4198	1091.13	1092.5	1093.93	1096.7	1099.39	1102.02	1104.58	1107.1	1109.55
323.15 K, x1 = 0.4847	1113.75	1115	1116.36	1119.02	1121.59	1124.12	1126.59	1129.01	1131.39
323.15 K, x1 = 0.5713	1139.53	1140.71	1142.02	1144.55	1147.01	1149.42	1151.81	1154.14	1156.41
323.15 K, x1 = 0.6827	1166.57	1167.74	1168.97	1171.37	1173.72	1176.03	1178.31	1180.52	1182.71
323.15 K, x1 = 0.7919	1188.51	1189.35	1190.5	1192.81	1195.06	1197.29	1199.48	1201.62	1203.73
323.15 K, x1 = 0.9317	1210.34	1211.42	1212.55	1214.78	1216.96	1219.11	1221.21	1223.29	1225.34
333.15 K, x1 = 0.05056	826.91	829.15	831.49	835.97	840.22	844.27	848.14	851.85	855.41
333.15 K, x1 = 0.103	885.77	887.83	889.93	893.99	897.89	901.61	905.17	908.61	911.93
333.15 K, x1 = 0.1247	907.28	909.17	911.19	915.1	918.84	922.44	925.91	929.24	932.47
333.15 K, x1 = 0.2126	977.1	978.86	980.64	984.14	987.5	990.73	993.88	996.92	999.88
333.15 K, x1 = 0.2919	1026.55	1027.68	1029.31	1032.48	1035.56	1038.53	1041.42	1044.25	1046.98
333.15 K, x1 = 0.3185	1039.85	1041.25	1042.83	1045.92	1048.93	1051.83	1054.66	1057.43	1060.13
333.15 K, x1 = 0.4198	1083.92	1085.39	1086.84	1089.7	1092.49	1095.2	1097.84	1100.42	1102.94
333.15 K, x1 = 0.4847	1106.62	1107.91	1109.29	1112.04	1114.72	1117.29	1119.85	1122.34	1124.77
333.15 K, x1 = 0.5713	1132.56	1133.8	1135.1	1137.7	1140.25	1142.73	1145.17	1147.56	1149.9
333.15 K, x1 = 0.6827	1159.67	1160.86	1162.12	1164.6	1167.03	1169.4	1171.73	1174	1176.25
333.15 K, x1 = 0.7919	1181.63	1182.51	1183.7	1186.07	1188.4	1190.67	1192.91	1195.12	1197.28
333.15 K, x1 = 0.9317	1203.54	1204.68	1205.83	1208.1	1210.35	1212.54	1214.7	1216.82	1218.92
343.15 K, x1 = 0.05056	818.25	820.66	823.11	827.83	832.27	836.51	840.54	844.41	848.12
343.15 K, x1 = 0.103	877.67	879.77	881.99	886.23	890.27	894.14	897.85	901.43	904.85
343.15 K, x1 = 0.1247	899.5	901.47	903.69	907.82	911.68	915.39	918.99	922.46	925.77
343.15 K, x1 = 0.2126	969.67	971.48	973.32	976.91	980.38	983.71	986.96	990.09	993.12
343.15 K, x1 = 0.2919	1019.38	1020.57	1022.23	1025.5	1028.64	1031.72	1034.69	1036.01	1040.41
343.15 K, x1 = 0.3185	1032.6	1034.03	1035.67	1038.87	1041.94	1044.93	1047.86	1050.69	1053.46
343.15 K, x1 = 0.4198	1076.98	1078.52	1080	1082.95	1085.8	1088.59	1091.31	1093.96	1096.54
343.15 K, x1 = 0.4847	1099.67	1100.97	1102.41	1105.21	1107.95	1110.61	1113.23	1115.78	1118.28
343.15 K, x1 = 0.5713	1125.7	1126.98	1128.32	1131.01	1133.6	1136.16	1138.67	1141.1	1143.48
343.15 K, x1 = 0.6827	1152.86	1154.1	1155.37	1157.89	1160.38	1162.8	1165.19	1167.53	1169.82
343.15 K, x1 = 0.7919	1175	1175.81	1177.05	1179.48	1181.84	1184.18	1186.47	1188.72	1190.93
343.15 K, x1 = 0.9317	1196.87	1198.02	1199.21	1201.52	1203.82	1206.06	1208.26	1210.44	1212.58
